Like-named read-outs stand apart in the source and are kept apart here.
Legend:
[1] = Plasma protein binding, rat; format: in vitro ADME; conditions: pH 7.4, read-out: fu,plasma rat
Experimental: Plasma protein binding and Brain homogenate binding: Determination of fraction unbound (f u) in plasma was conducted in vitro via equilibrium dialysis using HTDialysis (HTD) membrane plates. The top half of the plate was filled with 100 uL of Dubelco’s Phosphate Buffered Saline, pH 7.4 (DPBS). Compounds were diluted into plasma from each species (5 µM final concentration), which was aliquoted in triplicate to the ‘bottom half’ of the prepared HTD plate wells. The HTD plate was sealed and incubated for 6 hours at 37 °C. Following incubation, each well (both top and bottom halves) were transferred (20 µL) to the corresponding wells of a 96-shallow-well (V-bottom) plate. The daughter plates were then matrix-matched (DPBS side wells received equal volume of plasma, and plasma side wells received equal volume of DPBS), and extraction solution (120 µL; acetonitrile containing 50 nM carbamazepine as IS) was added to all wells of both daughter plates to precipitate protein and extract test article. The plates were then sealed and centrifuged (3500 rcf) for 10 minutes at ambient temperature. Supernatant (60 µL) from each well of the daughter plates was then transferred to the corresponding wells of new daughter plates (96-shallow-well, V bottom) containing water (Milli-Q, 60 µL/well), and the plates were sealed in preparation for LC-MS/MS analysis (see LC-MS/MS analysis method below).
The unbound fraction (f u) was calculated following the equation below, and mean values for each species were calculated from 3 replicates. […]
Fraction unbound for both plasma and brain samples was determined using Equation 4.
Equation 4 Determination of fraction unbound in plasma.

[2] = IV/PO pharmacokinetics, NHP; format: in vivo; conditions: NHP (cyno); for clearance / Vd / half-life: cynomolgus monkey, plasma, 1 mg/kg; for clearance: read-out: CLp; for Vd: read-out: Vss; for half-life: read-out: elimination t1/2 (converted)
Excerpt: We next conducted multispecies IV/PO PK in parallel as a potential discerning data set.

rat M1 = molecular target: T1, rat M1 (Rattus norvegicus, UniProt P08482); assay: Calcium mobilization assay, rat M1 (agonist and PAM modes); format: cell-based; conditions: for rM1 PAM AChmax (%) / rM1 Agonist AChmax (%): % ACh max
T1 construct: expressed in transfected cells; host or cells: CHO (stated in general for all functional cell-based assays)
T1 sequence (P08482 1-460): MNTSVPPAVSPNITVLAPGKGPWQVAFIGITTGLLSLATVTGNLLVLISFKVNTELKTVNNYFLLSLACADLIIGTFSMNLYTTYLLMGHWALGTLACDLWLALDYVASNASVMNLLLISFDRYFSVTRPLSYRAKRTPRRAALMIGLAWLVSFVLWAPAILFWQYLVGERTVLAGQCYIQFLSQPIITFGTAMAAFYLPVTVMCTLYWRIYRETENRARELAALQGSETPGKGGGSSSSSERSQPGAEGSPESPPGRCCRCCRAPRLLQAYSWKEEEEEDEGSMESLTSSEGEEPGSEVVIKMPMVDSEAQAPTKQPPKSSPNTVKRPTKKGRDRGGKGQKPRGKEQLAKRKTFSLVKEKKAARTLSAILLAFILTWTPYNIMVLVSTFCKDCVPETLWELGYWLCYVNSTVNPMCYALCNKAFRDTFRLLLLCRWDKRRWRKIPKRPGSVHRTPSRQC

CYP1A2 = molecular target: T2, CYP1A2 (Homo sapiens, UniProt P05177); assay: CYP inhibition, 1A2; format: in vitro ADME
T2 sequence (P05177 1-516): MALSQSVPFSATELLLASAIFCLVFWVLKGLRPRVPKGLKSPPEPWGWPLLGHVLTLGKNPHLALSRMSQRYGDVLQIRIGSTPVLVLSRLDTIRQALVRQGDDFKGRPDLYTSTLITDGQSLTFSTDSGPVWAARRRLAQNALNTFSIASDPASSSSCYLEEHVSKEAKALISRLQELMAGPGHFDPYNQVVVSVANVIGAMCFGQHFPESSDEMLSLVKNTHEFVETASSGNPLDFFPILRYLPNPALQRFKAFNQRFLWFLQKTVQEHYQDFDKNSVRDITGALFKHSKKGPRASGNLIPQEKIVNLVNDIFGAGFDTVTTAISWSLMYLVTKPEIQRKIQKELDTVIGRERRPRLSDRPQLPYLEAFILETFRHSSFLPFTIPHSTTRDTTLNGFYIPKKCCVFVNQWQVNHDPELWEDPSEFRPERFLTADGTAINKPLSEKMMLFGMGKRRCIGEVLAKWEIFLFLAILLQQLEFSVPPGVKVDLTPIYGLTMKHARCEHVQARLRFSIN

[3] = GSH trapping study in human liver microsomes; format: in vitro ADME
[4] = PAM mode, read-out: rM1 PAM EC50
[5] = agonist mode, read-out: rM1 Agonist EC50

EC50 (rat M1; agonist mode, read-out: rat M1 agonism EC50) | SMILES | fraction unbound at 6 h, 5 µM [1] | F (%) po ([2]; dose iv/po 1/3 mg/kg) | clearance ([2]; dose iv/po 1/3 mg/kg) | Vd ([2]; dose iv/po 1/3 mg/kg) | half-life ([2]; dose iv/po 1/3 mg/kg) | rM1 PAM AChmax (%) (rat M1; PAM mode) | EC50 (rat M1; [4]) | rM1 Agonist AChmax (%) (rat M1; agonist mode) | EC50 (rat M1; [5]) | IC50 (CYP1A2) | GSH trapping, reactive intermediates [3] | F (%) po ([2]; dose iv/po 1/5 mg/kg) | clearance ([2]; dose iv/po 1/5 mg/kg) | Vd ([2]; dose iv/po 1/5 mg/kg) | half-life ([2]; dose iv/po 1/5 mg/kg)
 | Cn1ccc(-c2ccc(Cc3cc(C(=O)NC4CCOCC4)nc4ccsc34)cc2)n1 [compound 12] | 0.015 | 79% | 2.3 mL/min/kg | 0.7 L/kg | 4.5 h | 90% | 0.063 µM | 32% | 4.35 µM | > 30 µM | negative |  |  |  | 
3.1 µM | Cn1ccc2nc(C(=O)NC3CCOCC3)cc(Cc3ccc(-c4cc[nH]n4)cc3)c21 [compound 24] | 0.134 |  |  |  |  | 89% | 0.056 µM | 48% |  | > 30 µM |  |  |  |  | 
 | Cn1ccc(-c2ccc(Cc3cc(C(=O)NC4CCOCC4)nc4ccn(C)c34)cc2)n1 [compound 11] | 0.04 |  |  |  |  | 91% | 0.094 µM | 36% | 7.34 µM | > 30 µM | negative | 59% | 5.9 mL/min/kg | 0.39 L/kg | 1 h

Source: publication PMC11413853, “Discovery of VU6007496: Challenges in the Development of an M1 Positive Allosteric Modulator Backup Candidate” (ACS Chemical Neuroscience, 2024)
